For four compounds, Rr, IC50 and EC50 results are on record in US11001595B2, “Pyrimidine compounds and pyrimido indole compounds and methods of use” (Duquesne University of the Holy Spirit, priority 2014, dated 2021).

Like-named read-outs stand apart in the source and are kept apart here.

A word on the EC50: it is the concentration that produces a half-maximal response. High values mean a need for much substance, low ones an effect from little substance.

The subject of series [1] is SK-OV-3 MDR-1-6/6 cells (P-gp expressing). To be noted: cited from earlier work.
In series [2] the test system is SK-OV-3 cells. To be noted: Table 2, parental line; cited from earlier work.
Series [3] relates to HeLa cells. Particulars: Table 3, parental line; cited from earlier work.
For series [4], the system named is HeLa WTβ-III cells (β-III tubulin expressing). Particulars: cited from earlier work.
Series [5] has the same test system. Briefly: Effect of β-III tubulin on drug sensitivity, HeLa WT β-III (Section A). The format is cell-based. Particulars: for Rr: Table 6, relative resistance HeLa WTβ-III vs HeLa.
The next series relates to Wild type HeLa cells. In words: Antiproliferative effect, wild type HeLa, SRB assay (Section E). Particulars: read-out: IC50 ± SD Wild type HeLa. The format is cell-based, human. (The SRB assay estimates cell density from bound dye.)
Series [6] concerns NCl/ADR-RES cells (Pgp overexpressing). Briefly: Antiproliferative effect, Pgp overexpressing NCI/ADR-RES, SRB assay (Section E). Particulars: for Rr: IC50 of Pgp overexpressing line divided by IC50 of parental OVCAR-8; for IC50: read-out: IC50 ± SD Pgp Overexpressing NCl/ADR-RES.
The subject of a further series is MDA-MB-435 cells. Briefly: Inhibition of cell proliferation, MDA-MB-435 (Section A). The format is cell-based, human. To be noted: Table 4; read-out: IC50 ± SD in MDA-MB-435 Cells.
Another series concerns OVCAR-8 cells. In words: Antiproliferative effect, parental OVCAR-8, SRB assay (Section E). The format is cell-based, human.
Series [7] concerns βIII Overexpressing HeLa cells. In words: Antiproliferative effect, βIII overexpressing HeLa, SRB assay (Section E). The format is cell-based, human. Particulars: for Rr: IC50 of β-III overexpressing HeLa divided by IC50 of parental HeLa; for IC50: SRB assay, read-out: IC50 ± SD βIII Overexpressing HeLa.
For series [8], the system named is microtubules in A-10 cells. In words: Microtubule depolymerization in A-10 cells (Section A). The class given is cell-based. Particulars: Table 4, unit of column head (CA-4 row).
A further series deals with recombinant pjDHFR (Pneumocystis jirovecii (Human pneumocystis pneumonia agent), UniProt Q9UUP5). In words: Inhibition of recombinant pjDHFR. The class given is biochemical. Particulars: 37° C., 18 μM dihydrofolic acid.
Series [9] relates to SK-OV-3 MDR-1-6/6 cells (P-gp expressing). Particulars: Table 5, relative resistance SK-OV-3 MDR-1-6/6 vs SK-OV-3.
The test system of series [10] is SK-OV-3 cells. In words: Drug sensitivity in parental SK-OV-3 cells (Section A). The format is cell-based. To be noted: Homo sapiens, Table 5, parental line.
Series [11] concerns HeLa cells. In words: Drug sensitivity in HeLa cells (Section A). To be noted: Homo sapiens, Table 6, parental line, read-out: IC50 ± SD in HeLa. The format is cell-based.

Consider `COc1ccc(/C=C\c2cc(OC)c(OC)c(OC)c2)cc1OP(=O)(O)O` [CA4P, combretastatin A-4 phosphate], for which the Rr was 1.5 in series [1] (Table 2, relative resistance SK-OV-3 MDR-1-6/6 vs SK-OV-3) and 1.2 in [4] (Table 3, relative resistance WT β-III vs HeLa). The IC50 in series [1] (read-out: SK-OV-3 MDR-1-6/6 IC50, Table 2, P-gp expressing line) is 6.6 ± 1.3 nM; in the series with SK-OV-3 cells [2] it was 4.5 ± 0.2 nM; with HeLa cells [3], 4.7 ± 0.2 nM; in [4] (Table 3, β-III tubulin expressing line, read-out: WT β-III IC50) it was 5.7 ± 0.4 nM.

For the compound `COc1ccc(/C=C\c2cc(OC)c(OC)c(OC)c2)cc1O` [CA-4, combretastatin A-4], the Rr in series [5] amounted to 1; in [6], 1.5; in series [7], 1.38. Also, the IC50 was found to be 1.8 ± 0.4 nM with Wild type HeLa cells; 9 ± 2 nM in series [6] (SRB assay); 4.4 ± 0.46 nM with MDA-MB-435 cells; 6 ± 0.7 nM with OVCAR-8 cells (read-out: IC50 ± SD Parental OVCAR-8); 2.5 ± 0.7 nM in series [7]. Also, the EC50 in series [8] was determined as 9.8 nM.

Turning to `COc1cc(NCc2ccc3nc(N)nc(N)c3c2C)cc(OC)c1OC` [TMQ, Trimetrexate], at recombinant pjDHFR, the IC50 was 2.1 nM.

In the case of `CC(=O)O[C@H]1C(=O)[C@@]2(C)[C@H]([C@H](OC(=O)c3ccccc3)[C@]3(O)C[C@H](OC(=O)[C@H](O)[C@@H](NC(=O)c4ccccc4)c4ccccc4)C(C)=C1C3(C)C)[C@]1(OC(C)=O)CO[C@@H]1C[C@@H]2O` [Paclitaxel], the Rr in [9] is on record as 240; in series [5] it was 8.6; in [6] it was 500; in [7] it was 3.01. The IC50 in series [5] (Homo sapiens, HeLa, Table 6, β-III tubulin expressing line, read-out: IC50 ± SD in HeLa WTβ-III) is 24 ± 3 nM; in the series on SK-OV-3 cells [10], 5 ± 0.6 nM; in the series on Wild type HeLa cells (Homo sapiens, HeLa), 5.3 ± 2 nM; in series [6] (Homo sapiens, NCI/ADR-RES), 5000 nM; in the series with HeLa cells [11] it was 2.8 ± 0.36 nM; in the series on OVCAR-8 cells (Homo sapiens, OVCAR-8, read-out: IC50 ± SD Parental OVCAR-8), 10 nM. Moreover, in series [7] (Homo sapiens, HeLa), the IC50 is 16 ± 1 nM.
